Series [1] relates to MDCK cells. Briefly: MDCK cell apoptosis, in situ cell death detection kit. The following applies: 10 μM, 72 h. Format: cell-based, Canine. The procedure:
Apoptosis was measured using the in situ cell death detection kit (ROCHE Diagnostics, Indianapolis, Ind.). MDCK cells were seeded on 8-chamber polystyrene tissue culture-treated glass slides and incubated with compounds T08 and G07 for 72 h at 5, 10 or 20 μM. The assay was performed according to manufacturer's instructions. Five microscopic fields were analyzed per condition. The apoptosis index was calculated as the percentage of nucleus-stained cells.

In series [2] the test system is Pkd1^flox/−; Ksp-Cre mice. The series is described as follows: Pkd1flox/-;Ksp-Cre mouse model of autosomal dominant polycystic kidney disease. The following applies: for kidney weight in Pkd1flox/-;Ksp-Cre mice (in words): 3 days treatment, vs vehicle-treated; for total numbers of cysts (of >50 μm diameter) per kidney: H&E sections, control 797±69; for total numbers of cysts (of >50 μm diameter) per kidney / serum creatinine and urea (in words): Pkd1flox/-;Ksp-Cre mice; for serum creatinine and urea (in words): vs vehicle control, age 5 and 9 days. In kind it is in vivo. From the text:
An in vivo model of kidney disease was employed to further explore the ability of CFTR inhibitors to reduce cyst formation in a vascular, perfused cellular environment. Pkd1^flox/−; Ksp-Cre mice were employed for this model, since these kidney-selective Pkd1 knockout mice manifest a fulminant course, with development of large cysts and renal failure in first 2 weeks of life, and represent a postnatal model of ADPKD. Pkd1 knockout mice normally die within 20 days. The Pkd1^flox/−; Ksp-Cre model is suitable, inter alia, for evaluating the efficacy of CFTR inhibitors on retarding the growth of cysts in the distal segments of the nephron, including medullary thick ascending limbs of the loops of Henle, distal convoluted tubule and collecting ducts.
Pkd1^flox mice and Ksp-Cre transgenic mice in a C57BL/6 background were generated as described (see, e.g., Shibazaki et al., J Am Soc Nephrol 13: 10-11, 2004; and Shao et al., J Am Soc Nephrol 13: 1837-1846, 2002). Ksp-Cre mice express Cre recombinase under the control of the Ksp-cadherin promoter (Shao et al.). Kidney-specific Pdk1 knock-out mice (Pkd1^flox/−; Ksp-Cre mice) were generated by cross-breeding Pkd1^flox/flox mice with Pkd1^+/−:Ksp-Cre mice. Neonatal mice (age 1 day) were genotyped by genomic PCR.
CFTR inhibitors (5-10 mg/kg/day) or saline DMSO vehicle control (0.05 mL/injection) were administrated by subcutaneous injection on the backs of neonatal mice four times a day for 3 or 7 days using a 1 cc insulin syringe, beginning at age 2 days (11 mice per group). Pkd1^flox/+; Ksp-Cre or Pkd1^flox/+ mice from the same litter were used as controls. During the treatment period, control and Pkd1^flox/−; Ksp-Cre mice, with or without CFTR inhibitor treatment, were indistinguishable in their activity and behavior. Body weight was measured at day 5 (3 days after treatment), at which time there was no difference in body weight in any of the mouse groups. Blood and urine samples were collected for measurements of CFTR inhibitor concentration and renal function. Kidneys were removed and weighed, and fixed for histological examination or homogenized for determination of CFTR inhibitor content.
To measure serum creatinine and urea (indicators of renal function), serum was obtained from whole blood by centrifugation at 5000×g for 5 min. Serum creatinine concentration was measured using a colorimetric assay kit (Cayman Chemical, Ann Arbor Mich.) following manufacturer's instructions. Urea concentration was measured using the colorimetric QUANTICHROM Urea Assay Kit (BioAssay Systems, Hayward, Calif.). Creatinine and urea concentrations were determined from optical densities using calibration standards.
For histological examination, kidneys were fixed with Bouin's fixative and embedded in paraffin. Three-μm thick sections were cut serially every 200 μm and stained with hematoxylin and eosin (H&E). Sections were imaged using a LEICA inverted epifluorescence microscope (DM 4000B) equipped with 2.5× objective lens and color CCD camera (Spot, model RT KE; Diagnostic Instruments Inc.). Cyst sizes in micrographs of kidney were determined using MATLAB 7.0 software.

Series [3] deals with MDCK cells. Briefly: MDCK cell cyst model of polycystic kidney disease. To be noted: for effect on MDCK cyst enlargement (in words): 1 μM. Format: cell-based, Canine. The text has this:
An MDCK cell model of polycystic kidney disease was used to screen CFTR inhibitors of the thiazolidinone and glycine hydrazide classes for reducing cyst formation and expansion. […] Culture of MDCK cells in three-dimensional collagen gels produces a polarized, single-layer, thinned epithelium surrounding a fluid-filled space, apical […] microvilli, a solitary cilium, and apical tight junctions (see, e.g., McAteer et al., Scan Elect Microsc (Pt 3): 1135-1150, 1986; McAteer et al., Scanning Microsc 2: 1739-1763, 1988; and Taide et al., Eur J Clin Invest 26: 506-513, 1996).
Type I MDCK cells (ATCC No. CCL-34) were cultured at 37° C. in a humidified 95% air/5% CO2 atmosphere in a 1:1 mixture of Dulbecco's modified Eagle's medium (DMEM) and Ham's F-12 nutrient medium supplemented with 10% fetal bovine serum (Hyclone), 100 U/mL penicillin and 100 μg/mL streptomycin. To generate cysts, four hundred MDCK cells were suspended in 0.4 ml of ice-cold Minimum Essential Medium containing 2.9 mg/mL collagen (PuRECOL, Inamed Biomaterials, Fremont Calif.), 10 mM HEPES, 27 mM NaHCO3, 100 U/mL penicillin and 100 μg/mL streptomycin (pH 7.4). The cell suspension was plated onto 24-well plates. After gelation, 1.5 mL of MDCK cell medium containing 10 μM forskolin was added to each well and plates were maintained at 37° C. in a 5% CO2 humidified atmosphere.
The compound structures together with their approximate CFTR inhibition potencies (expressed as IC50 values) are provided in FIGS. 3 and 4. Indicated IC50 values for T01-07, T10, T12-14 were reported by Ma et al. (J Clin Invest 110: 1651-1658 (2002)). IC50 values for T08, T11, and T16 were determined by short-circuit analysis performed according to methods described herein. Indicated IC50 values for G01-05, G8-16 were reported by Sonawane et al. (FASEB J. 20: 130-132 (2006); Sonawane et al., Gastroenterology 132:1234-44 (2007)). IC50 values for G06 and G07 were determined by short-circuit current analysis performed according to methods described herein.
Medium containing forskolin and test compounds was changed every 12 h. At day 6, cysts (with diameters >50 μm) and non-cyst cell colonies were counted by phase-contrast light microscopy at 20× magnification (546 nm monochromatic illumination) using a Nikon TE 2000-S inverted microscope. In some experiments, compounds were added to medium in the continued presence of forskolin from day 4 after seeding and the medium containing forskolin and compounds was changed every 12 h for 8 days. Micrographs showing the same cysts in collagen gels (identified by markings on plates) were obtained every 2 days. For determination of cyst growth, cyst diameters were measured using Image J software. At least 10 cysts/well and 3 wells/group were measured for each condition.

Take `O=C1/C(=C/c2ccc(-c3nn[nH]n3)cc2)SC(=S)N1c1cccc(C(F)(F)F)c1` [Compound 6, (Z)-5-(4-(1H-tetrazol-5-yl)benzylidene)-2-thioxo-3-(3-(trifluoromethyl)phenyl)thiazolidin-4-one]: the “MDCK cell apoptosis (in words)” value in the series on MDCK cells [1] was “did not cause MDCK cell apoptosis”.

Broadly, the inhibition is the change of the read-out against control, counted positive when it falls. Turning to `O=C1/C(=C/c2ccc(-c3nnn[nH]3)cc2)SC(=S)N1c1cccc(C(F)(F)F)c1` [Compound 6, (Z)-5-(4-(1H-tetrazol-5-yl)benzylidene)-2-thioxo-3-(3-(trifluoromethyl)phenyl)thiazolidin-4-one], in series [2], the “kidney weight in Pkd1flox/-;Ksp-Cre mice (in words)” value is “reduced kidney weight significantly”; the “total numbers of cysts (of >50 μm diameter) per kidney” value is reported as 457±32; the “serum creatinine and urea (in words)” value was “significantly reduced”. The “effect on MDCK cyst enlargement (in words)” value in the series on MDCK cells [3] is listed as “strongly inhibited cyst enlargement”. In the series with MDCK cells [3] (10 μM), the “effect on MDCK cyst enlargement/formation (in words)” value is on record as “slowed cyst enlargement”. The inhibition at 10 µM with MDCK cells [3] (Canis lupus familiaris, MDCK, 10 μM, forskolin 10 μM, cyst diameter, read-out: inhibition of cyst growth) was > 70%.

As for “N-2-naphthalenyl-2-hydroxyethyl-[(3,5-dibromo-2,4-dihydroxyphenyl)methylene]phenylglycinehydrazide [Compound G07]”, in series [2], the “kidney weight in Pkd1flox/-;Ksp-Cre mice (in words)” value is “reduced kidney weight significantly”; the “total numbers of cysts (of >50 μm diameter) per kidney” value is reported as 316±45; the “serum creatinine and urea (in words)” value is recorded as “significantly reduced”. For the same molecule, in the series with MDCK cells [1], the “MDCK cell apoptosis (in words)” value was “did not cause MDCK cell apoptosis”. Besides, in the series on MDCK cells [3], the “effect on MDCK cyst enlargement (in words)” value is listed as “strongly inhibited cyst enlargement”.
